According to US20260209152A1, “Substituted Hydroxystilbene Compounds and Derivatives, Synthesis and Uses Thereof” (Kynan Duke IP, LLC, priority 2019, published 2026):

What was measured:
Experiment in all cases: CellTiter Glo cell viability assay
[1] = system: Neuroblastoma SK-N-DZ/CRL-2149; format: cell-based; settings: Homo sapiens, 11 dilutions 3-0.00001 μM
Protocol: (§1) 1.7*10^3 cells/well were seeded in quadruplicates in 96-well plate after plating. Drugs were added at 5 μM and 2-fold dilutions over 18 concentrations (0.000038146-5 […] range) to generate a dose-response curve. Cell growth was assessed on day 1, 3 and 5 after drug treatments using the CellTiter Glo Luminescence Cell Viability Assay (Promega) according to manufacturer's protocol. Thermo Scientific Varioskan LUX Multimode Microplate instrument was used for plate reading. Data are expressed as mean luminescence (arbitrary units) ±S.D.
(§2) Cell Viability Assays were employed to determine the concentration of Compound 1 (KYN-001) and analogues where the response is reduced by half. For each treatment of cancer cells, 1, 2, 5, 10 and 20 μM solutions of compounds were applied. GraphPad Prism 7 software was used to fit dose response curves. Relative Luminescence Units were plotted against the log values of the doses used and the nonlinear regression model was used for data analysis.
(§3) IC50 (μM) values correspond to log(inhibitor) vs. response (four parameters) and dose-response graphs were generated using GraphPad Prism8.

[2] = system: Muscle Ewing's Sarcoma A-673/CRL-1598; format: cell-based; settings: Homo sapiens, A673, 11 dilutions 3-0.00001 μM
Protocol: as §1, §2, §3

[3] = system: Neuroblastoma SK-N-FI/CRL-2142; format: cell-based; settings: Homo sapiens, 11 dilutions 3-0.00001 μM
Protocol: as §1, §2, §3

[4] = system: Liver cancer SNU-449/CRL-2234; format: cell-based; settings: Homo sapiens, 11 dilutions 3-0.00001 μM
Protocol: as §1, §2, §3

[5] = system: Osteosarcoma MG-63/CRL-1427; format: cell-based; settings: Homo sapiens, 11 dilutions 3-0.00001 μM
Protocol: as §1, §2, §3

[6] = system: Neuroblastoma CHP-212/CRL-2273; format: cell-based; settings: Homo sapiens, 11 dilutions 3-0.00001 μM
Protocol: as §1, §2, §3

[7] = system: Colon cancer HT-29/HTB-38; format: cell-based; settings: Homo sapiens, 11 dilutions 3-0.00001 μM
Protocol: as §1, §2, §3

[8] = system: Colon cancer SW620/CCL-227; format: cell-based; settings: Homo sapiens, SW-620, 11 dilutions 3-0.00001 μM
Protocol: as §1, §2, §3

[9] = system: Neuroblastoma BE(2)-C/CRL-2268; format: cell-based; settings: Homo sapiens, 11 dilutions 3-0.00001 μM
Protocol: as §1, §2, §3

Pharynx FADU = format: cell-based, human; settings: Homo sapiens; Fadu/HTB-43; 11 dilutions 3-0.00001 μM; read-out: IC50
Procedure, shortened: (§4)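 Cells were seeded at 1.7*10^3 cells/well in quadruplicate and treated with 18 two-fold dilutions from 5 μM (0.000038146–5 μM), or with 1, 2, 5, 10 and 20 μM. Viability was read by CellTiter Glo luminescence on days 1, 3 and 5, and IC50 came from nonlinear regression of RLU against log dose.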

Liver SNU-423 = format: cell-based, human; settings: Homo sapiens; SNU-423/CRL-2238; 11 dilutions 3-0.00001 μM; read-out: IC50
Procedure, shortened: as §4

Lung NCI-H2126 = format: cell-based, human; settings: Homo sapiens; NCI-H2126/CCL-256; 11 dilutions 3-0.00001 μM; read-out: IC50
Procedure, shortened: as §4

Lung NCI-H1563 = format: cell-based, human; settings: Homo sapiens; NCI-H1563/CRL-5875; 11 dilutions 3-0.00001 μM; read-out: IC50
Procedure, shortened: as §4

Kidney Caki-2 = format: cell-based, human; settings: Homo sapiens; Caki-2/HTB-47; 11 dilutions 3-0.00001 μM; read-out: IC50
Procedure, shortened: as §4

Kidney Caki-1 = format: cell-based, human; settings: Homo sapiens; Caki-1/HTB-46; 11 dilutions 3-0.00001 μM; read-out: IC50
Procedure, shortened: as §4

Tongue SCC-4 = format: cell-based, human; settings: Homo sapiens; SCC-4/CRL-1624; 11 dilutions 3-0.00001 μM; read-out: IC50
Procedure, shortened: as §4

Liver SNU-398 = format: cell-based, human; settings: Homo sapiens; SNU-398/CRL-2233; 11 dilutions 3-0.00001 μM; read-out: IC50
Procedure, shortened: as §4

Pharynx DETROIT = format: cell-based, human; settings: Homo sapiens; Detroit 562/CCL-138; 11 dilutions 3-0.00001 μM; read-out: IC50
Procedure, shortened: as §4

Pancreatic BxPC3 = format: cell-based, human; settings: Homo sapiens; BxPC-3/CRL-1687; 11 dilutions 3-0.00001 μM; read-out: IC50
Procedure, shortened: as §4

Lung NCI-H1573 = format: cell-based, human; settings: Homo sapiens; NCI-H1573/CRL-5877; 11 dilutions 3-0.00001 μM; read-out: IC50
Procedure, shortened: as §4

Tongue UPCI: SCC090 = format: cell-based, human; settings: Homo sapiens; UPCI: SCC090/CRL-3239; 11 dilutions 3-0.00001 μM; read-out: IC50
Procedure, shortened: as §4

Bladder SCABER = format: cell-based, human; settings: Homo sapiens; SCaBER/HTB-3; 11 dilutions 3-0.00001 μM; read-out: IC50
Procedure, shortened: as §4

[10] = system: Hypo-pharynx UPCI: SCC152; format: cell-based, human; settings: Homo sapiens; UPCI: SCC152/CRL-3240; 11 dilutions 3-0.00001 μM; read-out: IC50
Procedure, shortened: as §4

Row | IC50 [1] [nM] | IC50 [2] [nM] | IC50 [3] [nM] | IC50 [4] [nM] | IC50 [5] [nM] | IC50 [6] [nM] | IC50 [7] [nM] | IC50 [8] [nM] | IC50 [9] [nM] | IC50 (Liver SNU-423) [nM] | IC50 (Lung NCI-H2126) [nM] | IC50 (Lung NCI-H1563) [nM] | IC50 (Liver SNU-398) [nM] | IC50 (Pancreatic BxPC3) [nM] | IC50 (Lung NCI-H1573) [nM] | Compound | IC50 (Pharynx FADU) [nM] | IC50 (Kidney Caki-2) [nM] | IC50 (Kidney Caki-1) [nM] | IC50 (Tongue SCC-4) [nM] | IC50 (Pharynx DETROIT) [nM] | also measured
1 | 140 | 312 | 48.5 | 64 | 31.3 | 26.1 | 1990 | 103 | 54.8 | 119 | 97 | 74.1 | 110 | 1410 | 55.8 | CCOc1cc(O)cc(/C=C/c2ccc(O)c(O)c2)c1CC=C(C)C [Compound 20, (E)-4-(3-Ethoxy-5-hydroxy-2-(3-methylbut-2-en-1-yl)styryl)benzene-1,2-diol] | 80.1 | 302 | 96.3 | 31.3 | 122 | IC50 (Tongue UPCI: SCC090): 47.8 nM; IC50 (Bladder SCABER): 53.7 nM; IC50 [10]: 149 nM
2 | 16.4 | 112 | 9.7 | 10.2 | 4.8 | 3 | 325 | 18 | 11.2 | 27.5 | 10.7 | 15.9 | 32.7 | 175 | 21.2 | CCOc1cc(O)cc(/C=C/c2ccc(NC=O)c(OC)c2)c1CC=C(C)C [Compound 28, (E)-N-(4-(3-Ethoxy-5-hydroxy-2-(3-methylbut-2-en-1-yl)styryl)-2-methoxyphenyl)formamide] | 11.8 | 69.8 | 7.2 | 3.1 | 11.4 | IC50 (Tongue UPCI: SCC090): 56.1 nM; IC50 (Bladder SCABER): 6 nM; IC50 [10]: 20.5 nM
